Results: paper PMC8286840, “Identifying SARS-CoV-2 antiviral compounds by screening for small molecule inhibitors of Nsp3 papain-like protease” (Biochemical Journal, 2021)
Structures can show the parent of a compound that is named as a salt. Where two headings read alike, the source gives them in different places.

Key:
[1] = target: T1, SARS-CoV-2 PLpro (nsp3 1564–1878) (Severe acute respiratory syndrome coronavirus 2, UniProt P0DTD1); test: biochemical; design: FRET-quenched peptide (Pro3) cleavage by PLpro, 10 min pre-incubation, slope over 20 min, normalised to no-compound control; details: low concentration screen, read-out: % of control remaining
[2] = target: T1, SARS-CoV-2 PLpro (nsp3 1564–1878); test: biochemical; design: FRET-quenched peptide (Pro3) cleavage by PLpro, 10 min pre-incubation, slope over 20 min, normalised to no-compound control; details: high concentration screen, read-out: % of control remaining

Cc1ccc(Sc2ccccc2N2CCNCC2)c(C)c1 [Vortioxetine (hydrobromide)]
remaining activity at 1.25 µM ([1]; Well no.=7384): 98.6%
remaining activity at 3.75 µM ([2]; Well no.=7384): 98.7%

O=C(O)Cc1ccccc1Nc1c(Cl)cccc1Cl [Diclofenac Diethylamine]
remaining activity at 1.25 µM ([1]; Well no.=5309): 103%
remaining activity at 3.75 µM ([2]; Well no.=5309): 98.6%

CCCCc1ncc(/C=C(\Cc2cccs2)C(=O)O)n1Cc1ccc(C(=O)O)cc1 [Eprosartan (mesylate)]
remaining activity at 1.25 µM ([1]; Well no.=8191): 105%
remaining activity at 3.75 µM ([2]; Well no.=8191): 105%

Cc1cccc(-c2[nH]ncc2-c2ccc3ncccc3n2)n1 [RepSox]
remaining activity at 1.25 µM ([1]; Well no.=5490): 96.3%
remaining activity at 3.75 µM ([2]; Well no.=5490): 95.5%

Cc1cc2c(cc1Cl)N(C(=O)Nc1ccc(Oc3cccnc3C)nc1)CC2 [SB 242084 dihydrochloride]
remaining activity at 1.25 µM ([1]; Well no.=1222): 102%
remaining activity at 3.75 µM ([2]; Well no.=1222): 102%

CCOc1cc(C(C)(C)C)ccc1C1=N[C@@](C)(c2ccc(Cl)cc2)[C@@](C)(c2ccc(Cl)cc2)N1C(=O)N1CCN(CCCS(C)(=O)=O)CC1 [RG7112]
remaining activity at 1.25 µM ([1]; Well no.=6676): 94.8%
remaining activity at 3.75 µM ([2]; Well no.=6676): 94%

CCCCNC(=O)NS(=O)(=O)c1ccc(C)cc1 [Tolbutamide]
remaining activity at 1.25 µM ([1]; Well no.=1329): 107%
remaining activity at 1.25 µM ([1]; Well no.=1601): 99.7%
remaining activity at 3.75 µM ([2]; Well no.=1329): 104%
remaining activity at 3.75 µM ([2]; Well no.=1601): 97.6%

CCC(=O)O[C@@H](O[P@](=O)(CCCCc1ccccc1)CC(=O)N1C[C@H](C2CCCCC2)C[C@H]1C(=O)O)C(C)C [Fosinopril (sodium)]
remaining activity at 1.25 µM ([1]; Well no.=8750): 93.5%
remaining activity at 3.75 µM ([2]; Well no.=8750): 94.7%

COc1ccc(Cc2nccc3cc(OC)c(OC)cc23)cc1OC [Papaverine hydrochloride]
remaining activity at 1.25 µM ([1]; Well no.=1144): 98.1%
remaining activity at 3.75 µM ([2]; Well no.=1144): 98.9%

CN1[C@@H]2CC[C@H]1C[C@@H](OC(c1ccccc1)c1ccccc1N)C2 (some centres unmarked) [Aminobenztropine]
remaining activity at 1.25 µM ([1]; Well no.=206): 97.2%
remaining activity at 3.75 µM ([2]; Well no.=206): 98.3%

CNCC(O)c1ccc(O)cc1 (centres unmarked) [Synephrine (hydrochloride)]
remaining activity at 1.25 µM ([1]; Well no.=6699): 100%
remaining activity at 3.75 µM ([2]; Well no.=6699): 101%

COc1cccc(NC(=O)/C=C/c2ccc(Cl)cc2)c1 [SB-366791]
remaining activity at 1.25 µM ([1]; Well no.=1260): 104%
remaining activity at 3.75 µM ([2]; Well no.=1260): 103%

O=C1CC[C@@]2(O)[C@H]3Cc4ccc(O)c5c4[C@@]2(CCN3CC2CC2)[C@H]1O5 [Naltrexone (Hydrochloride)]
remaining activity at 1.25 µM ([1]; Well no.=8147): 98.3%
remaining activity at 3.75 µM ([2]; Well no.=8147): 95.1%

CCCN(CCC)CCc1c[nH]c2ccc(C(N)=O)cc12 [N,N-Dipropyl-5-carboxamidotryptamine maleate]
remaining activity at 1.25 µM ([1]; Well no.=402): 95.4%
remaining activity at 3.75 µM ([2]; Well no.=402): 97.1%

O=C1C(=O)N(Cc2ccc(Cl)c(Cl)c2)c2ccccc21 [MDK83190]
remaining activity at 1.25 µM ([1]; Well no.=6404): 101%
remaining activity at 1.25 µM ([1]; Well no.=8130): 94.6%
remaining activity at 3.75 µM ([2]; Well no.=6404): 99.4%
remaining activity at 3.75 µM ([2]; Well no.=8130): 90%

COc1ccccc1N1CCN(CCCCN2C(=O)c3ccccc3C2=O)CC1 [NAN-190 hydrobromide]
remaining activity at 1.25 µM ([1]; Well no.=1141): 97%
remaining activity at 3.75 µM ([2]; Well no.=1141): 99.5%

COc1cc(/C=C/C(=O)CC(=O)/C=C/c2ccc(O)cc2)ccc1O [(1E,6E)-1-(4-hydroxy-3-methoxyphenyl)-7-(4-hydroxyphenyl)-1,6-heptadiene-3,5-dione]
remaining activity at 1.25 µM ([1]; Well no.=5795): 90.1%
remaining activity at 3.75 µM ([2]; Well no.=5795): 95.2%

CCCCCCCC/C=C/CCCCCCCCCCCCC(=O)O [14(E)-Tricosenoic acid]
remaining activity at 1.25 µM ([1]; Well no.=4500): 95.4%
remaining activity at 3.75 µM ([2]; Well no.=4500): 94.8%

O=P(O)(O)C(O)(Cc1cccnc1)P(=O)(O)O [Risedronic acid]
remaining activity at 1.25 µM ([1]; Well no.=1989): 97.8%
remaining activity at 3.75 µM ([2]; Well no.=1989): 96.9%

C[C@H](O)[C@H](O)c1cnc2nc(N)[nH]c(=O)c2n1 [6-Biopterin]
remaining activity at 1.25 µM ([1]; Well no.=6447): 99.6%
remaining activity at 3.75 µM ([2]; Well no.=6447): 95.8%

CC(C)C[C@@H](C(=O)O)c1cc(-c2ccc(C(F)(F)F)cc2)cc(-c2ccc(C(F)(F)F)cc2)c1 [(R)-2-(4,4''-bis(trifluoromethyl)-[1,1':3',1''-terphenyl]-5'-yl)-4-methylpentanoic acid]
remaining activity at 1.25 µM ([1]; Well no.=5455): 99.6%
remaining activity at 3.75 µM ([2]; Well no.=5455): 106%

O=C(O)c1ccc(SC2=NS(=O)(=O)c3ccccc32)cc1 [4-((1,1-dioxidobenzo[d]isothiazol-3-yl)thio)benzoic acid]
remaining activity at 1.25 µM ([1]; Well no.=5526): 97.8%
remaining activity at 3.75 µM ([2]; Well no.=5526): 102%

CCCCC/C=C\C[C@@H]1O[C@H]1/C=C/C(O)C/C=C\CCCC(=O)O (some centres unmarked) [Hepoxilin A3]
remaining activity at 1.25 µM ([1]; Well no.=4339): 107%
remaining activity at 3.75 µM ([2]; Well no.=4339): 106%

CN(C)CCCN1c2ccccc2Sc2ccc(C(F)(F)F)cc21 [Triflupromazine (hydrochloride)]
remaining activity at 1.25 µM ([1]; Well no.=6373): 105%
remaining activity at 3.75 µM ([2]; Well no.=6373): 103%

CN(C)c1ncnc2c1ncn2[C@@H]1O[C@H](CO)[C@@H](O)[C@H]1O [N6,N6-Dimethyladenosine]
remaining activity at 1.25 µM ([1]; Well no.=7854): 97.9%
remaining activity at 3.75 µM ([2]; Well no.=7854): 102%

O=C(O)CCCCC1CCSS1 (racemic)
remaining activity at 1.25 µM ([1]; Well no.=1195): 102%
remaining activity at 3.75 µM ([2]; Well no.=1195): 101%

Cn1c(=O)[nH]c(=O)c2[nH]cnc21 [3-Methylxanthine]
remaining activity at 1.25 µM ([1]; Well no.=6777): 106%
remaining activity at 3.75 µM ([2]; Well no.=6777): 102%

N=C1S/C(=C\c2ccc(-c3ccc4c(c3)C(=O)NC4=O)o2)C(=O)N1c1ccc(Br)cc1 [Bioymifi]
remaining activity at 1.25 µM ([1]; Well no.=6390): 96.5%
remaining activity at 3.75 µM ([2]; Well no.=6390): 98%

Cc1ncc(CO)c(CO)c1O [Pyridoxine HCl]
remaining activity at 1.25 µM ([1]; Well no.=4935): 97.7%
remaining activity at 3.75 µM ([2]; Well no.=4935): 96.8%

CC(ONC(=O)c1cc(C(F)(F)F)cc(C(F)(F)F)c1)C(=O)Nc1ccc(Cl)cc1 (centres unmarked) [CCG-1423]
remaining activity at 1.25 µM ([1]; Well no.=7811): 99.2%
remaining activity at 3.75 µM ([2]; Well no.=7811): 101%

OC(CN1CCN(c2cccc(Cl)c2)CC1)C(c1ccccc1)c1ccccc1 (centres unmarked) [BRL 15572]
remaining activity at 1.25 µM ([1]; Well no.=131): 95.9%
remaining activity at 3.75 µM ([2]; Well no.=131): 98.1%

CCCCCCC(=O)CCCCCC/C=C/C[C@@H](O)[C@H](O)[C@@](N)(CO)C(=O)O [Myriocin]
remaining activity at 1.25 µM ([1]; Well no.=3417): 99.6%
remaining activity at 3.75 µM ([2]; Well no.=3417): 101%

CCCCC/C=C\C=C\C(O)CCCCCCCC(=O)O (racemic)
remaining activity at 1.25 µM ([1]; Well no.=4378): 103%
remaining activity at 3.75 µM ([2]; Well no.=4378): 103%

C/C(O)=C(\C#N)C(=O)Nc1cc(Br)ccc1Br [LFM-A13]
remaining activity at 1.25 µM ([1]; Well no.=789): 99.1%
remaining activity at 3.75 µM ([2]; Well no.=789): 97.7%

CCN(CC)CCNC(=O)c1ccc(N)cc1 [Procainamide.HCl]
remaining activity at 1.25 µM ([1]; Well no.=1645): 108%
remaining activity at 3.75 µM ([2]; Well no.=1645): 107%
